Data: patent publication US20130035256A1, “Chimeric Polypeptides Useful in Proximal and Dynamic High-Throughput Screening Methods” (ADDEX PHARMA SA, priority 2010, published 2013)
“Also recorded” adds a separate entry of the source.

Tests used:
chimeric GIPR = molecular target: T1, chimeric GIPR (Homo sapiens, UniProt P48546); assay: BRET assay, specificity of the response of the chimeric GIPR (stable cell line, FP-Gγ9); format: cell-based; conditions: increasing concentrations of ligand
T1 construct: ID; NOs; expressed in transfected cells
T1 sequence (P48546 with tags, fused parts or gaps): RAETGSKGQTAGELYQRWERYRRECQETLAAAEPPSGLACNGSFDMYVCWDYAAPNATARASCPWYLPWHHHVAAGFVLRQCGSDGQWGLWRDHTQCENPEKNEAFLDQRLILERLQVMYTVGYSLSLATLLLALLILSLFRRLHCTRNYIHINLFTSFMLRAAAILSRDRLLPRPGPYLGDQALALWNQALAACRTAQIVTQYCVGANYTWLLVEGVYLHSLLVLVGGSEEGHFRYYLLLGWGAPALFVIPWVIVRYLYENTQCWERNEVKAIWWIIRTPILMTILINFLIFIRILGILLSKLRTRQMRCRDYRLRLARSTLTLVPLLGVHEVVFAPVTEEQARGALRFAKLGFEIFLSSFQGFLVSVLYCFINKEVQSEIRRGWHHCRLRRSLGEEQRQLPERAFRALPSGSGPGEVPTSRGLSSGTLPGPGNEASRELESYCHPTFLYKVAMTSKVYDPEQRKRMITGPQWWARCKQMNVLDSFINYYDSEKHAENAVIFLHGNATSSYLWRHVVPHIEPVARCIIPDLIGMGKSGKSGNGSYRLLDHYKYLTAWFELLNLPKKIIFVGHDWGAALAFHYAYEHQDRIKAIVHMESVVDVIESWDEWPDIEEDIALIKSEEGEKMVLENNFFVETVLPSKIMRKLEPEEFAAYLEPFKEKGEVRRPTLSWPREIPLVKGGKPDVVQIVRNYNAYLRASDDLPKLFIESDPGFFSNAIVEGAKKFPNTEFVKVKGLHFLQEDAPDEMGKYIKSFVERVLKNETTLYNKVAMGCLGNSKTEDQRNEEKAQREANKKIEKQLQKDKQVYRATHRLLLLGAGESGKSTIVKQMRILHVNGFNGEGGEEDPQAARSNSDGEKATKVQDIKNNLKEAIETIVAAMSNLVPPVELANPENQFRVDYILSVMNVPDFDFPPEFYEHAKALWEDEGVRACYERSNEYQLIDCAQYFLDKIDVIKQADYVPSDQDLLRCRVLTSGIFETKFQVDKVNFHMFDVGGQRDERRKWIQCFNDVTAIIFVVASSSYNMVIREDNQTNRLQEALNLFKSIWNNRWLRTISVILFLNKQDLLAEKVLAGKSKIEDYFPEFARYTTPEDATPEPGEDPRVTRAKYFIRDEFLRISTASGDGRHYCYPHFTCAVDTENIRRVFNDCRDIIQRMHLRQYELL
Method: 5 or 10 minutes after the addition of coelenterazine H to the cells, the read plate is placed in the FLIPR tetra and the measurement begins.
Finally, a three-addition protocol can also be run on the FLIPR tetra, containing three compound plates, of which the first one usually contains different candidate agents, the second one an agonist at its EC20 and the third one an agonist at its EC80, so that a screen for both positive and negative allosteric modulators can be run at the same time.
The camera is adjusted in such a way that the gain is set to a maximum of 28,000× and the shutters are opened 100%. The signal captured is regulated by adjusting the exposure time to 0.1 to 3 seconds ideally resulting of a signal between 30,000-60,000 RLU. The read interval (emission filter 1, emission filter 2) is adjusted to the minimal value that results from the addition of the two exposure times (=2×0.1 to 3 seconds) plus the time needed to move the filters from position 1 to position 2 (0.3 sec), resulting in a maximal read frequency of 0.5 seconds (2 Hz).
Data on FIG. 6 were obtained by applying a two-addition protocol as described above with respect to FIG. 4, with the main differences being the final concentration of coelenterazine H of 6 μM, the exposure time in both channels of 1.5 seconds and the read interval of 3.3 seconds, as well as the presence of 0.2% BSA in the HBSS++ buffer for diluting peptidic ligands. […] The effects of the ligands were read for another 180 reads. Area under curve of blue/yellow ratio from count 31 to the end of the measurement was taken for the analysis and plotted against ligand concentration for the construction of the graph in FIG. 6.

chimeric M4R (RGLG-2) = molecular target: T2, chimeric M4R (RGLG-2) (Homo sapiens, UniProt P08173); assay: BRET assay of the invention, cells co-expressing chimeric M4R (RGLG-2) and FP-Gγ9; format: cell-based; conditions: for activation of the chimeric M4R (BRET): increasing concentrations of ligand; for Invention assay % stim / Invention assay % enh / Invention assay % inh: activity @ 30uM or 30 ug/ml, normalized to maximal effect of the orthosteric agonist; for Invention assay % stim: compound tested alone; for Invention assay % enh: in presence of EC20 value of Ach; for Invention assay % inh: in presence of EC80 of Ach
T2 construct: ID; NOs; expressed in transfected cells
T2 sequence (P08173 with tags, fused parts or gaps): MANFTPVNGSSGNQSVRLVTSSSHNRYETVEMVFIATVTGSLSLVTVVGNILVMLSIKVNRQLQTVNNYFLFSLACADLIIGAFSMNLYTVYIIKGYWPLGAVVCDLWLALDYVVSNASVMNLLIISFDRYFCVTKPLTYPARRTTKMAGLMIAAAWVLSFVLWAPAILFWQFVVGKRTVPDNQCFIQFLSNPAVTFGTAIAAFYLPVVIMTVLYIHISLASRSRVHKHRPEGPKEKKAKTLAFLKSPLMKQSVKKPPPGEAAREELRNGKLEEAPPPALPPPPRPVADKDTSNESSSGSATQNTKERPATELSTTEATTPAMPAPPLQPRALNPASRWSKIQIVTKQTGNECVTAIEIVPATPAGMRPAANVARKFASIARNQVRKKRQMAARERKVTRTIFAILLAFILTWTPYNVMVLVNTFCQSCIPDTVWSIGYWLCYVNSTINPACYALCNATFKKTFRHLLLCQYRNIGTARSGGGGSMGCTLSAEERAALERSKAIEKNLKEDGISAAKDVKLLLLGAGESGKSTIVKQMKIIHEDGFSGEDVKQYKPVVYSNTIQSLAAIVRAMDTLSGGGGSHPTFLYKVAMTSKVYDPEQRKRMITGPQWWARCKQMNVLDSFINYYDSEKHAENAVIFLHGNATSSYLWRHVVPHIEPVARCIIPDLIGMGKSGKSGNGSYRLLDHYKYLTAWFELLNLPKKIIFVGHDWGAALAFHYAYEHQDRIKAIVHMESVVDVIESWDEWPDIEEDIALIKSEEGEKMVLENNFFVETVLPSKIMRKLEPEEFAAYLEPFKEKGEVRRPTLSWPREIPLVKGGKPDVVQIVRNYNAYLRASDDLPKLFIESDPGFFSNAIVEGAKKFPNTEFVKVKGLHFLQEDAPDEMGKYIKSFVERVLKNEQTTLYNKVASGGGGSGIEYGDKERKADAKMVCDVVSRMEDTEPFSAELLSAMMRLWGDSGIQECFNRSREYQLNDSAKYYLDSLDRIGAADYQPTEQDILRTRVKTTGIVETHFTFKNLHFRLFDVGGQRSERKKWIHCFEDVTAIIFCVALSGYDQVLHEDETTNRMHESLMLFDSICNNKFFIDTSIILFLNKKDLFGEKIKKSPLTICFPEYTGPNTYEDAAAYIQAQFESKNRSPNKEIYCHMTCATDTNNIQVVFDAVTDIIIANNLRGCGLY
Method: The same cells as described for FIG. 10 A were used. […] The decrease of the signal below baseline in the PTX-treated condition confirms a constitutive activity that has been described for the M4R. […]
A typical experiment has the following sequence.
(§1) The assay of the present invention was compared with a state of the art calcium based assay. […] In calcium-based assay, a calcium flux is measured in cells co-expressing recombinant M4R and modified Gαq. In the assay in accordance with the present invention, BRET in measured in cells co-expressing a chimeric M4R according to RGLG-2 (construct and cell-line from FIG. 2C, Table 6) and FP-Gγ9 (as described in FIG. 10A). The data represent mean values and they are normalized to the maximal effect of the orthosteric agonist after the subtraction of the basal values.

[1] = tested on: receptors endogenously expressed in non-transfected HEK cells; assay: cAMP accumulation in non-transfected HEK cells; format: cell-based, human; conditions: increasing concentrations of ligand
From the text: These ligands are the following: NECA (empty inverted triangles), Corticotropin releasing factor (CRF) (empty diamonds), calcitonin (full circles), isoproterenol (full triangles), UTP (full inverted triangles) and carbachol (full squares). […]

M4R = molecular target: T3, M4R (Homo sapiens, UniProt P08173); assay: Calcium-based assay, calcium flux in cells co-expressing recombinant M4R and modified Gαq; format: cell-based; conditions: activity @ 30uM or 30 ug/ml, normalized to maximal effect of the orthosteric agonist; for Calcium-based assay % stim: compound tested alone; for Calcium-based assay % enh: in presence of EC20 value of Ach; for Calcium-based assay % inh: in presence of EC80 of Ach
T3 construct: expressed in transfected cells
T3 sequence (P08173 1-479): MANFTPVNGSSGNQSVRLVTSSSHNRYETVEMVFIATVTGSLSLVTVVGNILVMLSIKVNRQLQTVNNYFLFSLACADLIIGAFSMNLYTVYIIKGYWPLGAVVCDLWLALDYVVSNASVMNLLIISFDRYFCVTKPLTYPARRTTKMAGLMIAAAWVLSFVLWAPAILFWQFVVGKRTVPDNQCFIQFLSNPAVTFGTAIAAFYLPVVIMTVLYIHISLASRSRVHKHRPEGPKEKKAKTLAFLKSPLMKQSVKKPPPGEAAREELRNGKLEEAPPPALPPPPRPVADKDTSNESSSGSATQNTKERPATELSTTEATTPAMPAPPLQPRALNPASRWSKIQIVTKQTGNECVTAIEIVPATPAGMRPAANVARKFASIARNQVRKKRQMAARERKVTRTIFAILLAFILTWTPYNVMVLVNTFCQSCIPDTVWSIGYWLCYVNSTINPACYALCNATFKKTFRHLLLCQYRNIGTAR
Method: as §1

[2] = molecular target: human GIPR-Renilla luciferase-Gαs long fusion protein (type RLG) (human); assay: cell-based or functional assay
Sequence of human GIPR-Renilla luciferase-Gαs long fusion protein (type RLG) (human) (chain, as listed by the source limits assumed): as the sequence (P48546 with tags, fused parts or gaps) above

[3] = molecular target: human GLP-1R-Renilla luciferase-Gαs long fusion protein (type RLG) (human); assay: cell-based or functional assay
Sequence of human GLP-1R-Renilla luciferase-Gαs long fusion protein (type RLG) (human) (chain, as listed by the source limits assumed): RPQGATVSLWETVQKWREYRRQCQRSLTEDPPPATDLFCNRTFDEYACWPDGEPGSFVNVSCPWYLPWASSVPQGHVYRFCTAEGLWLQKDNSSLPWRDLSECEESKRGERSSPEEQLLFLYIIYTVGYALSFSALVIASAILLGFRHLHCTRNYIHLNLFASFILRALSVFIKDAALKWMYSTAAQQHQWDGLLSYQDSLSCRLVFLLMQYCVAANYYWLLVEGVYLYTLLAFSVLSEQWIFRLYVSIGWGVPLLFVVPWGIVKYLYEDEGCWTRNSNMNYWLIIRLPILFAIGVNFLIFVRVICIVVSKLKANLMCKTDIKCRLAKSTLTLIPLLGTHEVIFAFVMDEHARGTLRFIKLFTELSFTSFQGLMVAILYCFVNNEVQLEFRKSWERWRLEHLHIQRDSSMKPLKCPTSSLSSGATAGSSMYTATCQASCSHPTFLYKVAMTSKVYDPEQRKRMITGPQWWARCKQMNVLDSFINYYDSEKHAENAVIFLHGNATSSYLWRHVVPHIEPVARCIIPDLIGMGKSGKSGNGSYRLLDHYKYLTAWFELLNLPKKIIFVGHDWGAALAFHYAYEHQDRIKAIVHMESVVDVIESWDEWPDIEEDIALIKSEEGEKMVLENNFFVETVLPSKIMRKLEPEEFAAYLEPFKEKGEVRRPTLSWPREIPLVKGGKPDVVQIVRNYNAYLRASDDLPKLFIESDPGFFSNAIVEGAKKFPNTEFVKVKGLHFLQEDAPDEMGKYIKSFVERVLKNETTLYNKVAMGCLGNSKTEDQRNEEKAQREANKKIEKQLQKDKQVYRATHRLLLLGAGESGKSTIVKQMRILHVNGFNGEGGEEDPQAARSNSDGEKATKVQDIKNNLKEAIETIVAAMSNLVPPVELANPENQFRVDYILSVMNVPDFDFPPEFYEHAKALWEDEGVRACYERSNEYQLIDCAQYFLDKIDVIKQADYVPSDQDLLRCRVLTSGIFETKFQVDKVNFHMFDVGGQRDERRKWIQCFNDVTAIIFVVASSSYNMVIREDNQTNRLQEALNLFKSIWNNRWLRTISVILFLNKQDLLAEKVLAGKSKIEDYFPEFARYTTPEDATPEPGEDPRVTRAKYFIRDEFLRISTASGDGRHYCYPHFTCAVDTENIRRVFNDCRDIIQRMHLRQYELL

[4] = molecular target: T4, GLP1R-L-G (human GLP-1 receptor) (Homo sapiens, UniProt P43220); assay: BRET assay, HEK cells transiently co-transfected with GLP1R-L-G and a Gγ construct; format: cell-based; conditions: cells coexpressing GLP1R-L-G and the Gγ construct, exposed to GLP-1
T4 construct: ID; expressed in transfected cells; host or cells: HEK cells, transient

[5] = molecular target: T5, GIPR-L-G (human GIP receptor) (Homo sapiens, UniProt P48546); assay: BRET assay, HEK cells transiently co-transfected with GIPR-L-G and a Gγ construct; format: cell-based; conditions: cells coexpressing GIPR-L-G and the Gγ construct, exposed to GIP
T5 construct: ID; NOs; expressed in transfected cells; host or cells: HEK cells, transient
T5 sequence (P48546 with tags, fused parts or gaps): as the sequence (P48546 with tags, fused parts or gaps) above

Molecule: CCNC(=O)[C@H]1O[C@@H](n2cnc3c(N)ncnc32)[C@H](O)[C@@H]1O [NECA, 5′-N-ethylcarboxamidoadenosine]
- activation of the chimeric GIPR (BRET) (chimeric GIPR): lack of activation
- activation of the chimeric M4R (BRET) (chimeric M4R (RGLG-2)): lack of activation
- activation of endogenously expressed receptors, cAMP accumulation [1]: activated; also recorded: increase in cAMP

Molecule: COC(=O)C1=C(C)NC(C)=C(C(=O)OC)C1c1ccccc1[N+](=O)[O-] [Nifedipine]
- Invention assay % stim (chimeric M4R (RGLG-2)): −15.8%
- Invention assay % enh (chimeric M4R (RGLG-2)): 5.3%
- Invention assay % inh (chimeric M4R (RGLG-2)): 23.2%
- Calcium-based assay % stim (M4R): −0.9%
- Calcium-based assay % enh (M4R): 8.7%
- Calcium-based assay % inh (M4R): 34.8%

Molecule: CC[C@H]1/C=C/C=C/C[C@@H](C)[C@H](O)[C@@](C)(O)C(=O)[C@@H](C)[C@H](O)[C@@H](C)C(=O)[C@@H](C)[C@H](O)[C@@H](C)/C=C/C(=O)O[C@@H]2[C@H](C)[C@H](CC1)O[C@]1(CC[C@H](C)[C@H](C[C@@H](C)O)O1)[C@H]2C [Oligomycin]
- Invention assay % stim (chimeric M4R (RGLG-2)): 1.8%
- Invention assay % enh (chimeric M4R (RGLG-2)): 3.3%
- Invention assay % inh (chimeric M4R (RGLG-2)): 8.5%
- Calcium-based assay % stim (M4R): 3.3%
- Calcium-based assay % enh (M4R): 63.8%
- Calcium-based assay % inh (M4R): −21.6%

Molecule: Nc1c[n+](N2CCOCC2)no1.[Cl-] [SIN-1 chloride]
- Invention assay % stim (chimeric M4R (RGLG-2)): −1.3%
- Invention assay % enh (chimeric M4R (RGLG-2)): 3.6%
- Invention assay % inh (chimeric M4R (RGLG-2)): 6.6%
- Calcium-based assay % stim (M4R): 5.1%
- Calcium-based assay % enh (M4R): 19.4%
- Calcium-based assay % inh (M4R): 17.1%

Molecule: O=c1ccn([C@@H]2O[C@H](COP(=O)(O)OP(=O)(O)OP(=O)(O)O)[C@@H](O)[C@H]2O)c(=O)[nH]1 [UTP, uridine-5′-triphosphate]
- activation of the chimeric GIPR (BRET) (chimeric GIPR): lack of activation
- activation of endogenously expressed receptors, cAMP accumulation [1]: activated; also recorded: increase in cAMP

Molecule: C[N+](C)(C)CCOC(N)=O [carbachol]
- activation of the chimeric GIPR (BRET) (chimeric GIPR): lack of activation
- activation of the chimeric M4R (BRET) (chimeric M4R (RGLG-2)): activation
- activation of endogenously expressed receptors, cAMP accumulation [1]: activated; also recorded: increase in cAMP

Molecule: CC(C)NCC(O)c1ccc(O)c(O)c1 (stereo not drawn) [isoproterenol]
- activation of the chimeric GIPR (BRET) (chimeric GIPR): lack of activation
- activation of the chimeric M4R (BRET) (chimeric M4R (RGLG-2)): lack of activation
- activation of endogenously expressed receptors, cAMP accumulation [1]: activated; also recorded: increase in cAMP

Molecule: AG 10
- Invention assay % stim (chimeric M4R (RGLG-2)): −13.0%
- Invention assay % enh (chimeric M4R (RGLG-2)): −0.1%
- Invention assay % inh (chimeric M4R (RGLG-2)): 8.6%
- Calcium-based assay % stim (M4R): 2.3%
- Calcium-based assay % enh (M4R): 3.8%
- Calcium-based assay % inh (M4R): 41.6%

Molecule: CRF: Corticotropin releasing factor, ligand of a receptor endogenously expressed in HEK cells
- activation of the chimeric GIPR (BRET) (chimeric GIPR): lack of activation
- activation of the chimeric M4R (BRET) (chimeric M4R (RGLG-2)): lack of activation
- activation of endogenously expressed receptors, cAMP accumulation [1]: increase in cAMP
- activation of endogenously expressed receptors, cAMP accumulation ([1]; listed as Corticotropin releasing factor): activated

Molecule: GIP (from UniProt P09681 52-93) (peptide)
- EC50 (GIP), BRET receptor activation; cells co-expressing FP-Gγ9 [2]: 0.3 nM
- EC50 (GIP), BRET receptor activation; cells co-expressing FP-Gγ11 [2]: 0.4 nM
- EC50 (GIP), BRET receptor activation; cells co-expressing FP-Gγ13 [2]: 0.3 nM
- EC50 (GIP), BRET receptor activation; cells co-expressing Gγ5-FP [2]: 5.5 nM
- EC50 (GIP), BRET receptor activation; cells co-expressing Gγ9-FP [2]: 1.4 nM
- EC50 (GIP), BRET receptor activation; cells co-expressing Gγ10-FP [2]: 8.9 nM
- EC50 (GIP), BRET receptor activation; cells co-expressing Gγ11-FP [2]: 1.6 nM
- EC50 (GIP), BRET receptor activation; cells co-expressing Gγ13-FP [2]: 0.6 nM

Molecule: GLP-1 (from UniProt P01275 21-180) (peptide)
- EC50 (GLP-1), BRET receptor activation; cells co-expressing FP-Gγ1 [3]: 1.1 nM
- EC50 (GLP-1), BRET receptor activation; cells co-expressing FP-Gγ2 [3]: 0.7 nM
- EC50 (GLP-1), BRET receptor activation; cells co-expressing FP-Gγ3 [3]: 0.3 nM
- EC50 (GLP-1), BRET receptor activation; cells co-expressing FP-Gγ4 [3]: 1.1 nM
- EC50 (GLP-1), BRET receptor activation; cells co-expressing FP-Gγ5 [3]: 0.1 nM
- EC50 (GLP-1), BRET receptor activation; cells co-expressing FP-Gγ7 [3]: 0.4 nM
- EC50 (GLP-1), BRET receptor activation; cells co-expressing FP-Gγ8 [3]: 1.4 nM
- EC50 (GLP-1), BRET receptor activation; cells co-expressing FP-Gγ9 [3]: 0.4 nM
- EC50 (GLP-1), BRET receptor activation; cells co-expressing FP-Gγ10 [3]: 0.3 nM
- EC50 (GLP-1), BRET receptor activation; cells co-expressing FP-Gγ11 [3]: 0.7 nM
- EC50 (GLP-1), BRET receptor activation; cells co-expressing FP-Gγ12 [3]: 0.3 nM
- EC50 (GLP-1), BRET receptor activation; cells co-expressing FP-Gγ13 [3]: 0.4 nM
- EC50 (GLP-1), BRET receptor activation; cells co-expressing Gγ1-FP [3]: 1.1 nM
- EC50 (GLP-1), BRET receptor activation; cells co-expressing Gγ2-FP [3]: 3 nM
- EC50 (GLP-1), BRET receptor activation; cells co-expressing Gγ3-FP [3]: 1.5 nM
- EC50 (GLP-1), BRET receptor activation; cells co-expressing Gγ4-FP [3]: 4.3 nM
- EC50 (GLP-1), BRET receptor activation; cells co-expressing Gγ7-FP [3]: 5.2 nM
- EC50 (GLP-1), BRET receptor activation; cells co-expressing Gγ8-FP [3]: 2.3 nM
- EC50 (GLP-1), BRET receptor activation; cells co-expressing Gγ9-FP [3]: 1.7 nM
- EC50 (GLP-1), BRET receptor activation; cells co-expressing Gγ10-FP [3]: 9.2 nM
- EC50 (GLP-1), BRET receptor activation; cells co-expressing Gγ11-FP [3]: 3.1 nM
- EC50 (GLP-1), BRET receptor activation; cells co-expressing Gγ12-FP [3]: 3.1 nM
- EC50 (GLP-1), BRET receptor activation; cells co-expressing Gγ13-FP [3]: 1 nM

Molecule: Gγ9-FP: fusion protein of human G-protein gamma9 and yellow fluorescent protein YPet, SEQ. ID. NOs. 5, 6
- HTS compat. [4]: +
- HTS compat. [5]: +

Molecule: Thapsigargin
- Invention assay % stim (chimeric M4R (RGLG-2)): −0.7%
- Invention assay % enh (chimeric M4R (RGLG-2)): −4.2%
- Invention assay % inh (chimeric M4R (RGLG-2)): 10.8%
- Calcium-based assay % stim (M4R): 129.5%
- Calcium-based assay % enh (M4R): 49.8%
- Calcium-based assay % inh (M4R): 11.6%

Molecule: calcitonin: ligand of a receptor endogenously expressed in HEK cells
- activation of the chimeric GIPR (BRET) (chimeric GIPR): lack of activation
- activation of the chimeric M4R (BRET) (chimeric M4R (RGLG-2)): lack of activation
- activation of endogenously expressed receptors, cAMP accumulation [1]: activated; also recorded: increase in cAMP
